The values below come from patent US20240417390A1, “HYDROGEN SULFATE SALT OF A BCL-2 INHIBITOR, RELATED CRYSTALLINE FORM, METHOD FOR PREPARING THE SAME AND PHARMACEUTICAL COMPOSITIONS CONTAINING THE SAME” (LES LABORATOIRES SERVIER, priority 2018, published 2024).

A short description of the data set: Solubility in water. It counts as physicochemical. The conditions noted are these: free base. Here is the method:
Although Compound A is a very promising drug, it is a difficult compound to formulate. In particular, it is […] in water (<0.01 mg/ml for the free base). […] In addition, different polymorphs can have different rates of uptake in the body, leading to lower or higher biological activity than desired. In extreme cases, an undesired polymorph can even show toxicity. […] However, even though polymorphism has been a subject for intensive investigations, understanding and controlling this phenomenon represents a substantial scientific challenge. It is hard to predict whether a given molecule will crystallize in one or several crystal forms, and to find conditions leading to such crystallization.

The structures appear in SMILES notation. A value given as a limit tells only on which side of the number the result lay.

On to `Cc1c(N(C(=O)c2cc(-c3cc(Cl)ccc3C(=O)N3Cc4ccccc4C[C@H]3CN3CCOCC3)n(C)c2C)c2ccc(O)cc2)cc(C#N)n1C` [Compound A, 5-(5-chloro-2-{[(3S)-3-(morpholin-4-ylmethyl)-3,4-dihydroisoquinolin-2(1H)-yl]carbonyl}phenyl)-N-(5-cyano-1,2-dimethyl-1H-pyrrol-3-yl)-N-(4-hydroxyphenyl)-1,2-dimethyl-1H-pyrrole-3-carboxamide], for which the solubility is below 10 µg/mL.

As a reminder, the solubility is the dissolved amount per volume that the medium holds.
